Results reported in US4280993A, “Process for determining the concentration of benzodiazepines in a body fluid” (priority 1978, dated 1981).

Experiments:
[1] = tested on: dopamine receptor sites in mamalian brain; details: cited from earlier work
[2] = tested on: receptor powder (ox brain tissue), ^3 H-flunitrazepam binding; experiment: Displacement of 3H-flunitrazepam from freeze-dried ox brain receptor powder (lorazepam standard curve); details: for Counts per minute: 50 μl added, bound 3H-flunitrazepam
Method: (a) A 25 mM solution of a sodium phosphate buffer, pH 7.0 (Solution I).
(b) A solution containing 18 ng and 5 μCi of ^3 H-flunitrazepam in 10 ml of 10% ethanol in Solution I (Solution II).
(c) About 0.3 g of a receptor powder, prepared as described below, suspended in 30 ml of Solution I (Suspension III).
(d) A standard solution (IV) containing 20 ng/ml of lorazepam, and prepared by dilution with the buffer I of 0.5 ml of 93% ethanolic solution (IVa) of lorazepam, containing 1 μg/ml of lorazepam, to a volume of 25 ml.
To 15 ml test tubes, each containing 400 μl of the receptor suspension III, are added 100 μl of Solution II and 50 μl of the sample, or 50 μl of the standard solution IV. The tubes are incubated at room temperature for at least 20 minutes and maximum 2 hours. Then, 10 ml of isothermic I are added, and the mixture is immediately filtered through a Whatman GF/C glassfibre filter and washed with 10 ml of isothermic buffer solution I.
The washed filter is placed in a scintillation vial, containing 5 ml of conventional scintillation fluid, and counted shortly after for 0.5 minute, or better the next day for 5 minutes.
For the preparation of a standard curve, a series of dilutions of the lorazepam standard solution (IV) is prepared by diluting with the buffer I, and assaying is performed in duplicate with 50 μl of each of these dilutions being added to the test tubes, each of which contains 400 μl of the suspension III and 100 μl of the solution II.
The average of counts co from the controls is 3187 from which is subtracted the average of the counts from the blanks, which is 160, to give co -cblank.
The count cx from each sample also has to be reduced by the average counts from the blanks, resulting from background radiation, to give cx -cblank.
In the accompanying drawing, the test results are plotted as co -cblank/cx -cblank versus the concentration of lorazepam, and the standard curve, therefore, can be used for quantitative determination of the benzodiazepine contents of samples.
The receptor powder used in the process described above was ox brain tissue which had been homogenized in 3 volumes of iced 1M sucrose solution whereafter the homogenate had been freeze-dried.

Row | Compound | binding to dopamine receptor sites [1] | c o - cblank / c x - cblank ([2]; drug 6.25 ng/ml) | Counts per minute ([2]; drug 6.25 ng/ml) | c o - cblank / c x - cblank ([2]; drug 12.5 ng/ml) | Counts per minute ([2]; drug 12.5 ng/ml) | c o - cblank / c x - cblank ([2]; drug 25 ng/ml) | Counts per minute ([2]; drug 25 ng/ml) | c o - cblank / c x - cblank ([2]; drug 62.5 ng/ml) | Counts per minute ([2]; drug 62.5 ng/ml) | c o - cblank / c x - cblank ([2]; drug 125 ng/ml) | Counts per minute ([2]; drug 125 ng/ml) | c o - cblank / c x - cblank ([2]; drug 250 ng/ml)
1 | O=C(CCCN1CCC2(CC1)C(=O)NCN2c1ccccc1)c1ccc(F)cc1 [^3 H-spiroperidol] | bind selectively and with high affinity | – | – | – | – | – | – | – | – | – | – | –
2 | O=C1Nc2ccc(Cl)cc2C(c2ccccc2Cl)=NC1O (stereo not drawn) [lorazepam, 7-chloro-5-(2-chlorophenyl)-3-hydroxy-2,3-dihydro-1H-1,4-benzodiazepin-2-one] | – | 1.41 | 2313 counts per minute | 1.73 | 1910 counts per minute | 2.30 | 1477 counts per minute | 3.86 | 944 counts per minute | 6.87 | 601 counts per minute | 12.51
